Data on seven compounds can be found in paper PMC7168207, “Dibasic Derivatives of Phenylcarbamic Acid as Prospective Antibacterial Agents Interacting with Cytoplasmic Membrane” (Antibiotics, 2020).

The test system of data set [1] is human monocytic leukemia THP-1 cells. Put plainly: in vitro antiproliferative assay (WST-1). The class given is cell-based. As to conditions: THP-1 cells, WST-1, 24 h, read-out: Tox IC50. How it is done:
The preliminary in vitro screening of the antiproliferative effect of the investigated compounds was performed using a Water Soluble Tetrazolium salts-1 (WST-1) assay kit and a human monocytic leukemia THP-1 cell line by means of the method described recently. The principle of the WST-1 assay kit is the […] mitochondrial dehydrogenases by antiproliferative compounds. The activity of this enzyme directly correlates with the number of metabolically active cells in the culture. The antiproliferative effect was evaluated as the IC50 value (the concentration of the compound causing 50% inhibition of cell proliferation).
Human monocytic leukemia THP-1 cells were used for in vitro antiproliferative assay. Cells were obtained from the European Collection of Cell Cultures (ECACC, Salisbury, UK) and routinely cultured in RPMI (Roswell Park Memorial Institute) 1640 medium supplemented with 10% fetal bovine serum, 2% L-glutamine, 1% penicillin, and streptomycin at 37 °C with 5% CO2. Cells were passaged at approximately one-week intervals. The antiproliferative activity of the compounds was determined using a Water Soluble Tetrazolium Salts-1 (WST-1, 2-(4-iodophenyl)-3-(4-nitrophenyl)-5-(2,4-disulfophenyl)-2H-tetrazolium) assay kit (Roche Diagnostics, Mannheim, Germany) according to the manufacturer’s instructions. The tested compounds were dissolved in DMSO and added in various compound concentrations to the cell suspension in the culture RPMI 1640 medium. The maximum concentration of DMSO in the assays never exceeded 0.1%. Subsequently, the cells were incubated at 37 °C with 5% CO2 for 24 h. For WST-1 assays, cells were seeded into 96-well plates (5 × 10^4 cells/well in 100 μL culture medium) in triplicate in serum-free RPMI 1640 medium, and measurements were taken 24 h after the treatment with the compounds. The median inhibition concentration values, IC50, were deduced through the production of a dose-response curve. All data were evaluated using GraphPad Prism 5.00 software (GraphPad Software, San Diego, CA, USA).

On the set-up of data set [2]: method as in PMID 30274224. As to conditions: isocratic RP-HPLC, extrapolated lipophilicity index; cited from earlier work.
In data set [3] the test system is Candida albicans CCM 8261. Description: minimum fungistatic concentration, RPMI 1640. Type of data set: cell-based. As to conditions: CCM8261, CA = C albicans CCM 8261, 48 h. Here is the method: Fungistatic activity was tested similarly in RPMI (Roswell Park Memorial Institute) 1640 medium (Sigma, Pool, UK). […] A growth control and sterility control were included. The colonies of C. albicans grown overnight on Sabourad dextrose agar were suspended in sterile phosphate-buffered saline (PBS) to get cell density 0.5 McFarland. The inoculum was diluted to get a final concentration of 10^3 CFU/mL in the wells. Plates were inoculated and cultivated at 37 °C for 48 h. The minimum fungistatic concentration was visually evaluated as the lowest concentration of a tested compound, which inhibited 100% of yeast growth. 5-Flucytosin (Sigma, UK) was used as a positive control.

The subject of another data set is E. faecalis ATCC 29212. Description: MIC, broth microdilution. The class given is cell-based, Enterococcus faecalis. Particulars: Enterococcus faecalis, ATCC 29212 / ATCC 29213; EF = E. faecalis ATCC 29213. How it is done: (§1) The modified broth microdilution method was used for in vitro evaluation of minimum inhibitory concentration. A small portion of bacterial colony cultivated overnight onto nutrient agar (Oxoid, Basingstoke, UK) with 5% bovine blood was suspended in sterile phosphate-buffered saline to get cell density 0.5 McFarland. This inoculum was diluted to reach the final concentration of bacterial cells 5 × 10^5 CFU/mL in the wells. […] For plates with staphylococci, cation adjusted Mueller–Hinton (CaMH) broth (Oxoid) was used; enterococci were cultivated in brain heart infusion (BHI, Oxoid). […] A drug-free control and a sterility control were included. Inoculated plates were incubated in aerobic atmosphere at 37 °C overnight. […] After evaluation of MICs, 10 µL of aliquots from the wells were put onto Mueller–Hinton agar. The agar plates were cultivated at 37 °C for 24 h. The minimum bactericidal concentration (MBC) was defined as the lowest concentration of the compound that killed 99.9% of the bacteria compared to the starting inoculum.

Data set [4] relates to vancomycin-resistant enterococci VRE 725B. Put plainly: MIC, broth microdilution. Type of data set: cell-based, Enterococcus faecalis. Particulars: Enterococcus; VRE3 = VRE 725B; read-out: MICs. How it is done: as §1
A general note: Dilution methods test growth across graded concentrations, often in twofold steps.

Data set [5] concerns vancomycin-resistant enterococci VRE 368. Put plainly: MIC, broth microdilution. As to conditions: Enterococcus; VRE2 = VRE 368; read-out: MICs. Type of data set: cell-based, Enterococcus faecalis. Here is the method:
as §1

Data set [6] has as its system vancomycin-resistant enterococci VRE 342B. Description: MIC, broth microdilution. The class given is cell-based, Enterococcus faecalis. As to conditions: Enterococcus; VRE1 = VRE 342B; read-out: MICs. Here is the method: as §1
Details of data set [7]: method as in PMID 30274224. As to conditions: methanolic solutions, c = 8.0 × 10^−5 M; cited from earlier work.
Details of data set [8]: method as in PMID 30274224. Particulars: cited from earlier work.
Data set [9] deals with methicillin-resistant S. aureus SA 630. Put plainly: MIC, broth microdilution. As to conditions: Staphylococcus aureus; MRSA2 = SA 630; read-out: MICs. The class given is cell-based, Staphylococcus aureus. Here is the method: as §1
Data set [10] has as its system methicillin-resistant S. aureus 63718. Put plainly: MIC, broth microdilution. Type of data set: cell-based, Staphylococcus aureus. Particulars: Staphylococcus aureus; MRSA1 = S. aureus 63718; read-out: MICs. Here is the method:
as §1

The subject of another data set is S. aureus ATCC 29213. Description: MIC, broth microdilution. The class given is cell-based, Staphylococcus aureus. Particulars: Staphylococcus aureus, ATCC29213; SA = S. aureus ATCC 29213; read-out: MICs. Here is the method:
as §1

Data set [11] concerns methicillin-resistant S. aureus SA 3202. Put plainly: MIC, broth microdilution. As to conditions: Staphylococcus aureus; MRSA3 = SA 3202; read-out: MICs. Type of data set: cell-based, Staphylococcus aureus. Here is the method: as §1

Values joined by “and” are separate entries in the source; they are usually repeats but may differ in a detail not shown here. Equal values may be shown once. Read-outs that look alike come from different tables or passages of the source. Where only a bound is given, the exact number is not on record here.

By IC50 is commonly meant the concentration that inhibits the measured activity by half. As for `CCCCCOc1ccccc1NC(=O)OC(CN(CCC)CCC)CN1CCCCCC1` (stereo not drawn) [1j], the IC50 in data set [1] (Homo sapiens, THP-1, 24 h) came to 26.4 ± 1.91 µM. Also, in [2], the log kw is reported as 4.8466. In addition, the MIC is > 128 µg/mL and > 199 µM in data set [3]; > 256 µg/mL and > 398 µM with E. faecalis ATCC 29212; > 256 µg/mL and > 398 µM in [4]; > 256 µg/mL and > 398 µM in data set [5]; > 256 µg/mL and > 398 µM in [6]; > 256 µg/mL and > 398 µM in data set [9]. In addition, the MIC in [10] is > 256 µg/mL and > 398 µM; in the data set on S. aureus ATCC 29213 it was > 256 µg/mL and > 398 µM; in [11], > 256 µg/mL and > 398 µM. Moreover, in [7], the “log ε2 (Ch-T)” value is 4.22. Also, the “γ (surface tension, relative surface activity)” value in data set [8] is given as 0.06206 N/m.
In the case of `CCCCCCOc1ccccc1NC(=O)OC(CN(CCC)CCC)CN1CCCCCC1` (stereo not drawn) [1k], the IC50 in data set [1] (Homo sapiens, THP-1, 24 h) was 31.2 ± 2.24 µM. Moreover, in data set [2], the log kw is 5.2359. Moreover, the MIC in [3] was > 128 µg/mL and > 195 µM; against E. faecalis ATCC 29212, > 256 µg/mL and > 390 µM; in data set [4], > 256 µg/mL and > 390 µM; in data set [5], > 256 µg/mL and > 390 µM; in data set [6] it was > 256 µg/mL and > 390 µM; in data set [9], > 256 µg/mL and > 390 µM. In addition, the MIC in data set [10] is > 256 µg/mL and > 390 µM; in the data set with S. aureus ATCC 29213, > 256 µg/mL and > 390 µM; in data set [11] it was > 256 µg/mL and > 390 µM. In addition, in data set [7], the “log ε2 (Ch-T)” value is 4.10. Further, the “γ (surface tension, relative surface activity)” value in [8] was 0.06065 N/m.
`CCCCCCCOc1ccccc1NC(=O)OC(CN(CCC)CCC)CN1CCCCCC1` (stereo not drawn) [1l]: the IC50 in [1] (Homo sapiens, THP-1, 24 h) turned out to be 29.75 ± 0.14 µM. Besides, the log kw in data set [2] was 5.8966. Further, the MIC in data set [3] was > 128 µg/mL and > 191 µM; with E. faecalis ATCC 29212, > 256 µg/mL and > 382 µM; in data set [4] it was > 256 µg/mL and > 382 µM; in data set [5], > 256 µg/mL and > 382 µM; in [6] it was > 256 µg/mL and > 382 µM; in [9], > 256 µg/mL and > 382 µM. The MIC is > 256 µg/mL and > 382 µM in [10]; > 256 µg/mL and > 382 µM with S. aureus ATCC 29213; > 256 µg/mL and > 382 µM in data set [11]. Further, in data set [7], the “log ε2 (Ch-T)” value is 4.14. For the same compound, the “γ (surface tension, relative surface activity)” value in data set [8] is reported as 0.05853 N/m.
In the case of `CCCCOc1cccc(NC(=O)OC(CN(CCC)CCC)CN2CCCCCC2)c1` (stereo not drawn) [1m], in data set [1] (Homo sapiens, THP-1, 24 h), the IC50 came out at 4.9 ± 0.19 µM. In addition, the log kw in data set [2] is 4.7099. Further, the MIC is > 128 µg/mL and > 245 µM in data set [3]; 32 µg/mL and 61.5 µM with E. faecalis ATCC 29212; 16 µg/mL and 30.7 µM in data set [4]; 64 µg/mL and 122 µM in [5]; 32 µg/mL and 61.5 µM in [6]; 64 µg/mL and 122 µM in data set [9]. Also, the MIC in data set [10] was 32 µg/mL and 61.5 µM; in the data set on S. aureus ATCC 29213, 128 µg/mL and 245 µM; in data set [11], 64 µg/mL and 122 µM. Further, in data set [7], the “log ε2 (Ch-T)” value is 4.09. Also, the “γ (surface tension, relative surface activity)” value in data set [8] is recorded as 0.06298 N/m.
Consider `CCCCCOc1cccc(NC(=O)OC(CN(CCC)CCC)CN2CCCCCC2)c1` (stereo not drawn) [1n], for which, in data set [1] (Homo sapiens, THP-1, 24 h), the IC50 came out at 4.99 ± 0.99 µM. For the same compound, the log kw in [2] was 5.2087. In addition, the MIC in [3] is > 128 µg/mL and > 239 µM; with E. faecalis ATCC 29212, 16 µg/mL and 29.9 µM; in data set [4] it was 16 µg/mL and 29.9 µM; in data set [5], 64 µg/mL and 119 µM; in [6], 32 µg/mL and 59.9 µM; in data set [9] it was 128 µg/mL and 239 µM. Further, the MIC in data set [10] is 64 µg/mL and 119 µM; in the data set with S. aureus ATCC 29213 it was 128 µg/mL and 239 µM; in data set [11] it was 256 µg/mL and 478 µM. In addition, the “log ε2 (Ch-T)” value in data set [7] is 4.18. In addition, the “γ (surface tension, relative surface activity)” value in data set [8] is 0.06154 N/m.
Consider `CCCCCCOc1cccc(NC(=O)OC(CN(CCC)CCC)CN2CCCCCC2)c1` (stereo not drawn) [1o], for which the IC50 in data set [1] (Homo sapiens, THP-1, 24 h) is below 6.5 µM; in [1], 4.71 ± 0.07 µM. Besides, in [2], the log kw is given as 5.6569. The MIC in [3] is > 128 µg/mL and > 233 µM; against E. faecalis ATCC 29212 it was 16 µg/mL and 29.2 µM; in data set [4], 8 µg/mL and 14.6 µM; in data set [5] it was 256 µg/mL and 466 µM; in [6], 32 µg/mL and 58.3 µM; in data set [9] it was > 256 µg/mL and > 466 µM. The MIC in data set [10] is 128 µg/mL and 233 µM; in the data set with S. aureus ATCC 29213, > 256 µg/mL and > 466 µM; in data set [11], > 256 µg/mL and > 466 µM. Moreover, in [7], the “log ε2 (Ch-T)” value is given as 4.01. In addition, the “γ (surface tension, relative surface activity)” value in data set [8] is 0.05925 N/m.
`CCCCCCCOc1cccc(NC(=O)OC(CN(CCC)CCC)CN2CCCCCC2)c1` (stereo not drawn) [1p]: the IC50 is below 6.5 µM in data set [1] (Homo sapiens, THP-1, 24 h) and 6.32 ± 0.58 µM in [1]. Also, the log kw in [2] is 6.1749. The MIC in data set [3] is > 128 µg/mL and > 227 µM; against E. faecalis ATCC 29212, 8 µg/mL and 14.2 µM; in data set [4] it was 16 µg/mL and 28.4 µM; in data set [5] it was 256 µg/mL and 455 µM; in data set [6], 64 µg/mL and 113 µM; in data set [9], > 256 µg/mL and > 455 µM. Also, the MIC in data set [10] is 256 µg/mL and 455 µM; with S. aureus ATCC 29213, > 256 µg/mL and > 455 µM; in [11] it was > 256 µg/mL and > 455 µM. Moreover, the “log ε2 (Ch-T)” value in [7] was 4.20. In addition, in [8], the “γ (surface tension, relative surface activity)” value is reported as 0.05692 N/m.
